The source made the active and inactive calls.
Tests used:
[1] = molecular target: T1, Trace amine-associated receptor 1 (Homo sapiens, UniProt Q96RJ0); test: Fluorescence-based cell-based high throughput dose response assay to identify agonists of the human trace amine associated receptor 1 (TAAR1).; format: functional
T1 sequence (Q96RJ0 whole entry): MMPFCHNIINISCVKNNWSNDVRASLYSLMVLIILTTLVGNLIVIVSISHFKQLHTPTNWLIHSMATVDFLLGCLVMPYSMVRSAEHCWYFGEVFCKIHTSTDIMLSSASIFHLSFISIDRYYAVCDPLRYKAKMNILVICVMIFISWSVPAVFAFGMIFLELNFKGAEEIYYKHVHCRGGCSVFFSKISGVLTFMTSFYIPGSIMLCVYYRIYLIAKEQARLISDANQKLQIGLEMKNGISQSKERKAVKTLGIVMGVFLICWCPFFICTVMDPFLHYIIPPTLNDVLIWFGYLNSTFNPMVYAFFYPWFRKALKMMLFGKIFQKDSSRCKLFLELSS

cells [2] = format: functional, cell-based
[3] = molecular target: T1, Trace amine-associated receptor 1; test: Counterscreen for agonists of the human trace amine associated receptor 1 (hTAAR1): Fluorescence-based cell-based high throughput dose response assay to identify hTAAR1 agonist that also desensitize TAAR1 receptor response.; format: functional
cells [4] = format: functional, cell-based; remark: listed apart in the source
INS1 = test: INS-1E survival protection against cytokine death – cell-based, luminescence, retest, dose response (AID 449756); format: functional; conditions: Rattus norvegicus;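 note: cell death triggered by IL-1 beta plus TNF-alpha plus IFN-gamma mixture; protective hits raise ATP signal compared with cytokine alone wells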
[5] = HGIII-sPLA2 enzyme inhibition potency – biochemical, QFRET, IC50, dose response (AID 743457);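 note: green fluorescence rise as the enzyme cleaves BODIPY PC-A2 in liposomes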
[6] = molecular target: T2, Corticotropin-releasing factor receptor 2/Corticotropin-releasing factor-binding protein (Homo sapiens, UniProt P24387+Q13324); test: activators of CRF receptor 2 with binding protein – uHTS hits, confirmation (AID 602473); format: functional; conditions: read-out: EC50_Mean
T2 sequence (Q13324 whole entry): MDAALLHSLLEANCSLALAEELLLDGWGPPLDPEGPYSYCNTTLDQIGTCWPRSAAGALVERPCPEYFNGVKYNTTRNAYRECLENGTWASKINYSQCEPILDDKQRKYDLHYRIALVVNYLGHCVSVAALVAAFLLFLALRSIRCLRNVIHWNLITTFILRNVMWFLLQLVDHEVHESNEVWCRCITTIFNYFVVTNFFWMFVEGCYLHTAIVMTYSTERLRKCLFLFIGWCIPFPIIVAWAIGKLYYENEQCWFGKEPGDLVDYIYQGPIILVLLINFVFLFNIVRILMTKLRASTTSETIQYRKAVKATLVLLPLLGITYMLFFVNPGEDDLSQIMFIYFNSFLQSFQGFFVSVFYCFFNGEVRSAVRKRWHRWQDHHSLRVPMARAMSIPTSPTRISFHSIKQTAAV
T2 sequence (P24387 whole entry): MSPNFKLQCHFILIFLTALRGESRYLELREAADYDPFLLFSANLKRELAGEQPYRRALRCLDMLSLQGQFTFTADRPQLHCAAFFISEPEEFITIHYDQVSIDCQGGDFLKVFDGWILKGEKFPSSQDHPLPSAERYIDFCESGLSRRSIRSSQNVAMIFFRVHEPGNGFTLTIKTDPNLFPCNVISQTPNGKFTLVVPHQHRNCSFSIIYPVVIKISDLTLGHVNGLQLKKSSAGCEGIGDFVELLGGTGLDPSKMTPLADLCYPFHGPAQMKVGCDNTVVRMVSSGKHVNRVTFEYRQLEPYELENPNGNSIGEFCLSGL

[7] = molecular target: T2, Corticotropin-releasing factor receptor 2/Corticotropin-releasing factor-binding protein; test: Dose Response confirmation of uHTS hits for small molecule antagonists of the CRF-binding protein and CRF-R2 receptor complex.; format: functional; conditions: read-out: IC50_Mean
[8] = blockers of CRF-binding protein–CRF-R2 complex – cell-based, uHTS hits, 384-well, dose response (AID 651639); format: functional, Homo sapiens; conditions: read-out: IC50_Mean
Galanin receptor type 3 = molecular target: T3, Galanin receptor type 3 (Homo sapiens, UniProt O60755); test: Fluorescence-based cell-based primary high throughput dose response assay to identify antagonists of the Galanin Receptor 3 (GalR3).; format: functional
T3 sequence (O60755 whole entry): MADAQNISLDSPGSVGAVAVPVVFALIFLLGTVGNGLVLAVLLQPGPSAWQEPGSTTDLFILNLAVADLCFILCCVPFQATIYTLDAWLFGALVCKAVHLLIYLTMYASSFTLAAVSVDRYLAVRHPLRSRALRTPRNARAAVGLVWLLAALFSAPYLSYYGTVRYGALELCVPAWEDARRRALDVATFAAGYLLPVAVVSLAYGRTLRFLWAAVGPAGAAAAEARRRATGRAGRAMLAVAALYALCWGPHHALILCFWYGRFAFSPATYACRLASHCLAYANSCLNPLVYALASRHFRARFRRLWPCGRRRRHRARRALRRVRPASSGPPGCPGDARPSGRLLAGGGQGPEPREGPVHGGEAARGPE

cells [9] = format: functional, cell-based; conditions: HEK-CNG
Protein RecA = molecular target: T4, Protein RecA (Mycobacterium tuberculosis, UniProt P9WHJ3); test: Fluorescence Cell-Free Homogeneous Dose Retest to Identify Inhibitors of RecA-Intein Splicing Activity. [Related pubchem assays (depositor defined):AID2097, AID2223, AID489010, AID492950]; format: functional
T4 sequence (P9WHJ3 whole entry): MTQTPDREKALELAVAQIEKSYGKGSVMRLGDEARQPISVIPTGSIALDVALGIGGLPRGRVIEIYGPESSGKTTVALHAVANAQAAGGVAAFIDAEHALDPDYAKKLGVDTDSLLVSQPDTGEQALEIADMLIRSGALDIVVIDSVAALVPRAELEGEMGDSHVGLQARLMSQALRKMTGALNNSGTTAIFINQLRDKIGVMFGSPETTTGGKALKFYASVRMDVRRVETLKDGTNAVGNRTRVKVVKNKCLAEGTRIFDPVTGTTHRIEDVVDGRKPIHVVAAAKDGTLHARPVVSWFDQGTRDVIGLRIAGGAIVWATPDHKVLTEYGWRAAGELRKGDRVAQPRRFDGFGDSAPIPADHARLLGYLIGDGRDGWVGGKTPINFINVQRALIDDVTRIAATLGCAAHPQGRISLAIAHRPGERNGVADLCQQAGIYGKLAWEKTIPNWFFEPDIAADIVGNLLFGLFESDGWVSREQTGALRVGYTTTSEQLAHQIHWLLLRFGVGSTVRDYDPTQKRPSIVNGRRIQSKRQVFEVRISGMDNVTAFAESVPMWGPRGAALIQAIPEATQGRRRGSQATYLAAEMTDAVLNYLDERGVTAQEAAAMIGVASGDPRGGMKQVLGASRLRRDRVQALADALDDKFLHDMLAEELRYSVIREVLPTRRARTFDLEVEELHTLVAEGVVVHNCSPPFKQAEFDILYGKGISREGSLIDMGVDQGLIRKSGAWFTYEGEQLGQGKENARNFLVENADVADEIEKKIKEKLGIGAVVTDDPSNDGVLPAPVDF

[10] = molecular target: T5, Replicative DNA helicase DnaB (Mycobacterium tuberculosis, UniProt P9WMR3); test: DnaB intein splicing inhibitors, dose response, biochemical, cell-free fluorescence (AID 449749); format: functional
T5 sequence (P9WMR3 whole entry): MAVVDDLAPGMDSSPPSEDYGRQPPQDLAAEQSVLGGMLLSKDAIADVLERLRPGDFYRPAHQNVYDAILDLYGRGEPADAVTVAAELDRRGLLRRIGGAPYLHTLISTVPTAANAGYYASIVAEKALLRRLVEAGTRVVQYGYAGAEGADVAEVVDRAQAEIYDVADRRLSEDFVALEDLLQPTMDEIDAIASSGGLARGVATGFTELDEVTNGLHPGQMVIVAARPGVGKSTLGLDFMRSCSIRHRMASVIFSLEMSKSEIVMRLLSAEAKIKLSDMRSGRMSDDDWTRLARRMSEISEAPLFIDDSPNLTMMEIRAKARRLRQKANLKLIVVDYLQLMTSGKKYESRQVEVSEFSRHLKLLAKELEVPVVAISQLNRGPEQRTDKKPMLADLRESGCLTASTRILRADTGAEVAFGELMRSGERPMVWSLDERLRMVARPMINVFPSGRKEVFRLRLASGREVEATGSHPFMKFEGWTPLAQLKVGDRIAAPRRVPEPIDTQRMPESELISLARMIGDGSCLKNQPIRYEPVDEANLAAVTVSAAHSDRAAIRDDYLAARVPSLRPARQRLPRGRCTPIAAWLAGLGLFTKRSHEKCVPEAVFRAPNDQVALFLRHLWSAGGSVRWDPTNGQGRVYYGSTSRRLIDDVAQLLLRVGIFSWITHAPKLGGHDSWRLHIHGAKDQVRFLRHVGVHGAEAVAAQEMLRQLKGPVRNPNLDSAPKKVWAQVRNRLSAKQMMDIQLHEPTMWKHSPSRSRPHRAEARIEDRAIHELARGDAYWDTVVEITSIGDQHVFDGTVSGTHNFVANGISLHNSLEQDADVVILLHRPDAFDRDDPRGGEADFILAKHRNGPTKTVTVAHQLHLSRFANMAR

[11] = NIH-3T3 fibroblast cytotoxicity, dose response, cytotoxicity control, cell-based, fluorescence, Alamar Blue, secondary assay (AID 2327); format: functional;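 note: NIH-3T3 mouse fibroblasts cultured with fluconazole at 8 µg/mL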
[12] = fluconazole-exposed Candida albicans growth modulators – fluorescence, retest, confirmation (AID 2467); format: functional, cell-based
Fatty acid synthase [13] = molecular target: T6, Fatty acid synthase (Homo sapiens, UniProt P49327); test: inhibition of human FAS-TE enzyme activity – biochemical, endpoint fluorescence intensity, uHTS hits, dose response (AID 624327); format: functional;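 note: fluorescence from hydrolysis of an O-methyl fluorescein acyl ester substrate by the enzyme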
[14] = viability loss of HMLE_sh_eGFP cells – cell-based, luminescence, counter-screen for HMLE_sh_ECad selective toxicity project, dose response (AID 463074); format: functional, Homo sapiens;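 note: HMLE human mammary epithelial cells expressing control shRNA against eGFP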
[15] = molecular target: Photoreceptor-specific nuclear receptor (Homo sapiens, UniProt Q9Y5X4); format: functional, cell-based;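 note: CHO-S cells with Gal4-NCOR and VP16-NR2E3 two-hybrid luciferase reporter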
Fatty acid synthase [16] = molecular target: T6, Fatty acid synthase; test: inhibition of human FAS-TE enzyme activity – biochemical, kinetic fluorescence intensity, dose response (AID 624326); format: functional;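 note: rate of fluorescence rise from hydrolysis of a fluorogenic O-methyl fluorescein ester substrate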
[17] = Luminescence Cell-Based Dose Retest to Confirm Inhibitors of Cancer Stem Cells. [Related pubchem assays (depositor defined):AID2717, AID2721]; format: functional; conditions: Homo sapiens
[18] = molecular target: Eukaryotic translation initiation factor 4E (Mus musculus, UniProt P63073); test: blockers of eIF4G binding by eIF4E – biochemical, TR-FRET, dose response (AID 855); format: functional;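 note: potency for disrupting eIF4E binding to eIF4GI seen as loss of FRET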
Sequence of Eukaryotic translation initiation factor 4E (P63073 whole entry): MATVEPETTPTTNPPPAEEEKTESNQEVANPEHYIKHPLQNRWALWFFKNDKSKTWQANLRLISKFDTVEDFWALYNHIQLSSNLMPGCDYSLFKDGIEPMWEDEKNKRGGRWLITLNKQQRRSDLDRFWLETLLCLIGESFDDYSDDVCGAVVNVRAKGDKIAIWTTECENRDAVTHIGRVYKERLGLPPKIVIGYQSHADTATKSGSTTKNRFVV

T6 sequence (P49327 whole entry): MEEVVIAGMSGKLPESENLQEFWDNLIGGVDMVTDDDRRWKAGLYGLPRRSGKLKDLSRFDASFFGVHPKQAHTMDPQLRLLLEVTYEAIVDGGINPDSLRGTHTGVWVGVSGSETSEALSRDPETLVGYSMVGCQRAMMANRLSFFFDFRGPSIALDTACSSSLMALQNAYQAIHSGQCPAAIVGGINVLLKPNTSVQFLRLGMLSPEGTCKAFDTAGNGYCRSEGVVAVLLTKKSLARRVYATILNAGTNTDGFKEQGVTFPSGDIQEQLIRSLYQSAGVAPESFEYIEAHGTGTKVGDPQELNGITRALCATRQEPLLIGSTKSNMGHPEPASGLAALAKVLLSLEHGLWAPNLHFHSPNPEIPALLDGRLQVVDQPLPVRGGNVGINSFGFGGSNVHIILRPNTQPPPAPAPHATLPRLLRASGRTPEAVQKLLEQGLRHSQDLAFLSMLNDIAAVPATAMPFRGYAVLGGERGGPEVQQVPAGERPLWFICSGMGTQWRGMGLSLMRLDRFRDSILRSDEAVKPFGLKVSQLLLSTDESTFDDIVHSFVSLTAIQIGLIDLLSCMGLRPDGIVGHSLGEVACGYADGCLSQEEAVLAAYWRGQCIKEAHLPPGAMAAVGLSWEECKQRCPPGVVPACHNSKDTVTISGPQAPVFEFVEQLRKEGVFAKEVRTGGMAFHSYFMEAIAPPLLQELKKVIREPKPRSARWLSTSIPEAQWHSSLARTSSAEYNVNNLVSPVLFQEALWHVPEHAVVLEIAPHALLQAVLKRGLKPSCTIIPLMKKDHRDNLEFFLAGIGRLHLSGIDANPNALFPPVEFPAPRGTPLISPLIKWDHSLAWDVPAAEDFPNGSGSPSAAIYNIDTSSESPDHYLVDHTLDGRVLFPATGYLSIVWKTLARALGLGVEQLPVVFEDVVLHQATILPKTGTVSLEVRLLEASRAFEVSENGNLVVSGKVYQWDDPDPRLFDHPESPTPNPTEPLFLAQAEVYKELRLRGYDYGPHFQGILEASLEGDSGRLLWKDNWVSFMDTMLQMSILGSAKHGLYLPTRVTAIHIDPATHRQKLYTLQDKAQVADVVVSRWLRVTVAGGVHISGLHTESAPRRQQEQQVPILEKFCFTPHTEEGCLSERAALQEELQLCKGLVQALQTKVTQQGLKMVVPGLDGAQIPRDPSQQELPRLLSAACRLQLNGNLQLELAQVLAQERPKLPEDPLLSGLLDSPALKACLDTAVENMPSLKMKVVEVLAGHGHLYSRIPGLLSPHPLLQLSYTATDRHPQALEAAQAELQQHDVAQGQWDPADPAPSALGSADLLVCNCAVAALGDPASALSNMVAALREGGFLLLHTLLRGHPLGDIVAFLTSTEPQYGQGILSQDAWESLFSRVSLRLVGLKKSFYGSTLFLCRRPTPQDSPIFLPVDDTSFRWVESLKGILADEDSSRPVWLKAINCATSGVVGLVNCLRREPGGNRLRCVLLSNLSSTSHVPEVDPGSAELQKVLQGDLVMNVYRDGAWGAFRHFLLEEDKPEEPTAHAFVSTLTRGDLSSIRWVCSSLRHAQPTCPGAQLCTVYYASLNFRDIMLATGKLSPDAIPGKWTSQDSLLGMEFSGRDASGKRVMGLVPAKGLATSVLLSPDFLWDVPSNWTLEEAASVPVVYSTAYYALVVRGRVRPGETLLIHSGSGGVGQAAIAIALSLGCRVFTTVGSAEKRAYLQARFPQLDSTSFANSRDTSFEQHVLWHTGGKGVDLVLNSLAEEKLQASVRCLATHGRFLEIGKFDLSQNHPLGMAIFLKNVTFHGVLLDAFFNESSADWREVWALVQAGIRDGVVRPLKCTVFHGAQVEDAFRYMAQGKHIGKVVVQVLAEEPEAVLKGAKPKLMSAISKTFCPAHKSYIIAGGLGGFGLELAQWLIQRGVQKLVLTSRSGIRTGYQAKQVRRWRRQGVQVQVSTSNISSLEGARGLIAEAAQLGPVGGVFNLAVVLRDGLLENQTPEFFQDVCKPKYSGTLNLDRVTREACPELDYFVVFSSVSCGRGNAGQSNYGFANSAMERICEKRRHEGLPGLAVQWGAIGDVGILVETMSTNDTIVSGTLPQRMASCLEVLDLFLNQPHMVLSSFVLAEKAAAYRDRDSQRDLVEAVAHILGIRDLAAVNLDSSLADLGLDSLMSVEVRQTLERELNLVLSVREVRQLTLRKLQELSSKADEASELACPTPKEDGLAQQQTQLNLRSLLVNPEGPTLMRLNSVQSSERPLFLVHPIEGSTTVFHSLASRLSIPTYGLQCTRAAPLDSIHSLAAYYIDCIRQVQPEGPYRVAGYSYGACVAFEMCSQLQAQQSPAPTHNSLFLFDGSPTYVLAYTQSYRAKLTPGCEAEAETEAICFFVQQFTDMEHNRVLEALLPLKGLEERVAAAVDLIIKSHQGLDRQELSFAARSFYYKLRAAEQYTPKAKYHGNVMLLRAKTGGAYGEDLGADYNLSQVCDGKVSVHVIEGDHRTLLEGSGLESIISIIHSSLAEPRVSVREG
Sequence of Photoreceptor-specific nuclear receptor (Q9Y5X4 whole entry, the tested form may be a part): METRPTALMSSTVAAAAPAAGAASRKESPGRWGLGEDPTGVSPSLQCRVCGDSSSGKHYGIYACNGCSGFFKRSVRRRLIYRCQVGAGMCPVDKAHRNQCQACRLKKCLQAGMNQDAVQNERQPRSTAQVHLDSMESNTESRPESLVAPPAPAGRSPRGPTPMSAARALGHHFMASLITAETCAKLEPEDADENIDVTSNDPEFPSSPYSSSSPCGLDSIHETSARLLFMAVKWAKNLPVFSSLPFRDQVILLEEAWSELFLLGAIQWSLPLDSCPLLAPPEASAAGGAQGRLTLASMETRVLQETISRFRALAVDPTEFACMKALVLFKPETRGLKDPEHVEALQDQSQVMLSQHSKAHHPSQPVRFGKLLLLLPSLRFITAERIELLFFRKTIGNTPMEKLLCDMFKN

In the case of Cc1cccc(C(CC(=O)NCCc2ccccc2)c2ccccc2)c1O (centres undefined), the EC50 [1] is reported as 3.5 µM (active), the IC50 (cells [2]) is reported as > 29.9 µM (inactive) and the IC50 [3] is reported as 4.62 µM (active). The EC50 (cells [4]) was > 29.9 µM (inactive).
In the case of Cc1ccc(C(=O)NC(=S)/C=C2\N(C)c3ccccc3C2(C)C)cc1, the AC50 (INS1) is reported as 2.33 µM (active) and the IC50 [5] is reported as > 122 µM (inactive).
In the case of CN(CCc1ccccc1)c1cc2c(c3c1ccn3C)C1CCC2O1 (centres undefined), the EC50 [1] is reported as 1.18 µM (active), the IC50 (cells [2]) is reported as > 29.9 µM (inactive) and the IC50 [3] is reported as 5.22 µM (active). For the same compound, the EC50 (cells [4]) was > 29.9 µM (inactive).
With CC/C(NCCc1ccccc1)=C1/C(=O)NC(=O)N(C2CCCCC2)C1=O the EC50 [1] was 2.87 µM (active), the IC50 (cells [2]) was > 29.9 µM (inactive) and the IC50 [3] was 6.23 µM (active). For the same compound, the EC50 (cells [4]) was > 29.9 µM (inactive).
With O=C(O)c1ccc(-n2ncc3c2/C(=C/c2cccc([N+](=O)[O-])c2)CC3)cc1 the EC50 [6] was > 53 µM (inactive), the IC50 [7] was 4.34 µM (active) and the IC50 [8] was 9.76 µM (active).
With Cc1onc(-c2ccccc2)c1-c1nc2ccccc2c(=O)o1 the IC50 (Galanin receptor type 3) was > 29.9 µM (inactive), the EC50 (cells [9]) was > 29.9 µM (inactive) and the EC50 (Protein RecA) was 1.11 µM (active). The AC50 [10] was 1.31 µM (active).
In the case of COCCn1c(SCCCC(=O)c2ccc(Br)cc2)nnc1-c1ccncc1, the IC50 (Galanin receptor type 3) is reported as 5.94 µM (active) and the EC50 (cells [9]) is reported as > 29.9 µM (inactive).
In the case of O=C1/C(=C\c2ccc(Br)cc2)SC(=S)N1NS(=O)(=O)c1ccccc1, the EC50 [11] is reported as 94.2 µM (active), the EC50 [6] is reported as 36.2 µM (active) and the EC50 [12] is reported as 267 nM (active). For the same compound, the IC50 [7] was 5.5 µM (active) and the IC50 [8] was 17.6 µM (active).
In the case of CCOC(=O)CCN(c1ccccc1)S(=O)(=O)c1ccc(-c2ccc(O)nn2)s1, the IC50 (Galanin receptor type 3) is reported as 4.41 µM (active) and the EC50 (cells [9]) is reported as > 29.9 µM (inactive).
For O=C(COC(=O)c1cc([N+](=O)[O-])ccc1N1CCOCC1)Nc1ccc(Cl)cn1, the IC50 (Fatty acid synthase [13]) was 5.2 µM (active), the AC50 [14] was 25.6 µM (active) and the IC50 [15] was 1.91 µM (active). For the same compound, the IC50 (Fatty acid synthase [16]) was 6.06 µM (active) and the AC50 [17] was 4.89 µM (active).
With COCC(C)n1c(SCc2ccc(C(=O)OC)o2)nc2ccccc2c1=O (centres undefined) the EC50 [6] was > 53 µM (inactive), the IC50 [7] was 27.4 µM (active) and the IC50 [18] was > 64 µM (inactive). The IC50 [8] was > 20 µM (inactive).

— ChEMBL document CHEMBL1201862, “PubChem BioAssay data set” (2004)
